# Literature values as cited in patent US20220193441A1, “ENERGY AUGMENTATION STRUCTURES, EMITTERS OR COLLECTORS, FOR USE IN NON-INVASIVE IN-SITU PHOTOBIOMODULATION” (IMMUNOLIGHT, LLC, priority 2019, published 2022).
# Key:
# [1] = tested on: epidermal growth factor receptor; settings: higher UVA light doses, with versus without trimethyl psoralen
# tumors = settings: in vivo
# [2] = clinical use
compound,measurement,setting,value
Cc1cc2cc3c(C)cc(=O)oc3c(C)c2o1 [trimethyl psoralen],inhibition of 125I-EGF specific binding,[1],higher efficiency
"CC(=O)[O-].CC(=O)[O-].CCc1c(CC)c2cc3nc(cnc4cc(OCCOCCOCCOC)c(OCCOCCOCCOC)cc4ncc4nc(cc1[n-]2)C(CCCO)=C4C)C(C)=C3CCCO.O.[Lu+3] [Lutetium texaphryin, Motexafin lutetium]",selectivity for tumors compared to normal tissues,tumors,one of the greatest reported selectivities for tumors
"Oc1cccc(-c2c3nc(c(-c4cccc(O)c4)c4ccc([nH]4)c(-c4cccc(O)c4)c4nc(c(-c5cccc(O)c5)c5ccc2[nH]5)CC4)C=C3)c1 [Foscan, Tetra (m-hydroxyphenyl) chlorin]",duration of skin photosensitivity,[2],approximately 2 weeks
